Reference: patent publication US20080188524A1, “Methods of treating pain” (priority 2006, published 2008)
Where “and” joins values, the source holds several entries; their conditions need not be identical. Equal values may be shown once. Entries after “also recorded” stand apart in the source; their conditions may differ.

Columns and labels:
[1] = tested on: LPS or SEB induced TNF α in human whole blood; experiment: tissue or blood; format: cell-based
[2] = tested on: carrageenan-treated mice (paw edema); experiment: Carrageenan assay in mice, paw edema; format: in vivo; conditions: within the observation period, all treated animals
Description: For the carrageenan assay a subcutaneous injection of 25 μl of 1% carrageenan (in saline) into a single hind paw (ipsi-lateral paw) of mice is applied. Subsequent inflammation results in long lasting swelling and hypersensitivity (against mechanical and thermal stimuli) of the paw. The carrageenan assay is a standard laboratory assay used to predict anti-inflammatory activity of test compounds. Paw edema measurements and Hargreaves Assay (withdrawal of paws due to thermal stimulation via a light source) are used for read out. The model of carrageenan induced paw edema is a standard laboratory assay used to predict anti-inflammatory activity and reduction of inflammation-induced pain perception of respective compounds. The following protocol describes one possible way to conduct the experiment. The basic measurement constitutes in the measurement of edema and mechanical as well as thermal hypersensitivity in response to irritants, such as carrageenan. […] Paw edema induced by carrageenan injection are detected by increased paw size measured from dorsal to plantar at the metatarsus region of the injected (ipsi-lateral) paws. Sizes of ipsi- and contra-lateral paws serve as surrogate markers for inflammation and are measured at several time points after carrageenan injection: before injection (-1), 2 […] […]

[3] = tested on: TNFα and IL6 expression in LPS induced THP-1 macrophages; experiment: In vitro THP-1 assay, LPS-induced cytokine expression (ELISA); format: cell-based, human
Description: The human THP-1 cell line can be utilized as an in vitro model of cytokine expression as mediated by Lipopolysaccharide (LPS) or Tumor Necrosis Factors [TNFα]. Monocytic THP-1 cells (ATCC; TIB-202) can be differentiated into macrophage-like cells expressing pro-inflammatory cytokines like TNFα, IL6 and IL1β upon induction with LPS or by TNFα (autocrine induction) itself. THP-1 cells are grown in modified RPMI-1640medium (ATCC, Cat. No. 30-2001) supplemented with 10% FCS and 1% Pen/Strep. For cytokine inhibition assays, cells are seeded at a density of 5×10^5 cells/ml into 6-well plates in standard growth medium supplemented with 100 ng/ml PMA (Sigma, P1585) to induce differentiation into macrophage-like cells. After 24 hours, the medium is replaced with standard growth medium (without PMA) and the cells are incubated for another 48 hours to complete differentiation. […] Cells are incubated for 60 min with compounds prior to stimulation with 100 ng/ml LPS (Sigma, L2630) for another 4-48 hours. Supernatants are collected and assayed immediately for cytokine expression, e.g. for TNFα, IL-6 and IL-1b using commercially available sandwich ELISA assays (eBioscience, Cat. No 88-7346, 88-7066, 88-7010) or kept frozen at […] until evaluation. Concentrations of TNFα, IL6 and IL1β within the cell culture supernatants are measured by using commercial ELISA Kits (eBioscience) according to the manufacturer's instructions. CDK-inhibitory compounds according to any one of general Formula I, II or III are administered to differentiated THP-1 cells in triplicates as described above (see section 2.). After 60 min of pre-incubation with test or reference compound (SB203580, a p38 inhibitor and BMS345541, an IKK-inhibitor) alone, cells are stimulated with LPS. After incubation for 4-48 h, supernatants are collected and ELISA based determinations of cytokine supernatant concentrations are performed as described in section 3, supra. […] After 60 min of pre-incubation with test or reference compound (a p38 inhibitor and an IKK-inhibitor, respectively) alone, cells were stimulated with LPS. […]

[4] = tested on: SNI mice (mechanical allodynia); experiment: Spared nerve injury (SNI) model, von Frey assay; format: in vivo, mice (strain C3HeB/FeJ); conditions: 30 mg/kg i.p., day 21 post SNI
From the text: The spared nerve injury model (SNI model, as developed by Decosterd and Woolf (2000), see FIG. 1) is characterized by the induction of clinically relevant nerve lesions and after surgical intervention, subsequent behavioral experiments (e.g., von Frey Assay). Said model constitutes a common nerve injury model which consists of ligation and section of two branches of the sciatic nerve (namely tibial and common peroneal nerves) leaving the sural nerve intact. The SNI model results in early (less than 24 hours), prolonged and substantial changes in mechanical and cold sensitivity that closely mimic the features of clinical neuropathic pain. […] As outlined above, the spared nerve injury (SNI) model (see FIG. 1) involves a lesion of two of the three terminal branches of the sciatic nerve (tibial and common peroneal nerves) of experimental animals, leaving the sural nerve intact. SNI results in mechanical and thermal allodynia in the non-injured sural nerve skin territory (Decosterd and Woolf, Pain 2000; 87:149-158. (2) Tsujino et al., Mol. Cel. Neurosci. 2000; 15:170-182). Wildtype mice (strain […]/FeJ) (age, sex and weight matched) are anesthetized with Hypnorm (0.315 mg/ml fentanyl citrate +10 mg/ml fluanisone; Janssen)/Hypnovel (5 mg/ml midazolam; Roche Applied Sciences)/water at a ratio of 1:1:2 at 4 μl/g prior to surgical preparation. Subsequently, an incision is made under aseptic precautions in the ipsi-lateral right hind leg of all mice just above the level of the knee, exposing the three terminal branches of the sciatic nerve: the common peroneal, tibial, and sural nerves. The common peroneal and tibial nerves are ligated tightly with 7/0 silk and sectioned distal to the ligation removing 2 mm of distal nerve stump. The sural branch remains untouched during the procedure (denoted herein “SNI ipsi”). […] Reflex nociceptive responses to mechanical stimulation were measured in a von Frey assay 30 min after each injection. […] Mechanical thresholds of SNI mice are quantified using the up-down method based on Chaplan et al. (1994) and Malmberg and Basbaum (1998). […]

[5] = LPS-stimulated differentiated THP-1 cells, ELISA

**Q.** How did the “reduction of TNF α levels” value [1] turn out when `CC(C)(C)c1cnc(CSc2cnc(NC(=O)C3CCNCC3)s2)o1` [compound #16 of Table 1, N-[5-[[[5-(1,1-dimethylethyl)-2-oxazolyl]-methyl]thio]-2-thiazolyl]-4-piperidinecarboxamide] was run?
**A.** 89% and 85% and 78%

**Q.** And the IC50 ([1]; Homo sapiens, read-out: IC50 (TNF α reduction), deduced from the data)?
**A.** < 500 nM

**Q.** What about the “ipsi-lateral paw edema compared to vehicle control group” value [2] of the same compound?
**A.** reduced paw edema

**Q.** What about the “TNFα signal compared to DMSO (vehicle control)” value ([3]; 3 μM, LPS-induced THP-1 cells) of the same compound?
**A.** 50%

**Q.** And the “effect on IL6 protein concentration in the cell supernatant versus vehicle (DMSO)” value [3, 5]?
**A.** significant inhibitory effect

**Q.** And the “effect on TNFα protein concentration in the cell supernatant versus vehicle (DMSO)” value [3, 5]?
**A.** significant inhibitory effect

**Q.** And the “effect on mechanical allodynia of SNI mice (von Frey)” value ([4]; 30 min prior to von Frey measurement, ipsi-lateral paw)?
**A.** hypoalgesic effect; also recorded: significant amelioration of allodynia

**Q.** And the “contra-lateral paws, effect of pharmacological treatment (von Frey)” value ([4]; contra-lateral paw)?
**A.** unaffected

**Q.** What about the “von Frey threshold values” ([4]; ipsi-lateral paw, all treated animals) of the same compound?
**A.** significant increase of threshold values
